For one data set, the system named is c-jun mRNA. Kind of data set: c-jun mRNA expression in TPA-induced A549 cells, Northern blotting. It counts as cell-based, human. The conditions noted are these: for c-jun mRNA % CONTROL: 400 nM oligonucleotide with LIPOFECTIN, control is TPA induction, at 1 hour, in A549 cells; for inhibition of c-jun mRNA expression: 400 nM oligonucleotide, TPA-induced A549 cells. Here is the method: In order to evaluate the activity of potential c-fos and c-jun modulating oligonucleotides, A549 cells were grown in T-75 flasks until 80-90% confluent. (Cell line A549 is available from, inter alia, the American Type Culture Collection, Rockville, Md., as ATCC No. CCL-185.) At this time, the cells were washed twice with 10 mL of media (DMEM), followed by the addition of 5 mL of DMEM containing 20 μg/mL of LIPOFECTIN™ (i.e., DOTMA/DOPE (N-[1-(2,3-dioleyloxy)propyl]-N,N,N-[…] chloride/dioleoylphosphatidyl ethanolamine)). […] After 4 hours at 37° C., the medium was replaced with DMEM containing 10% serum. At this point, 1 μM 12-O-tetradecanoylphorbol 13-acetate (TPA) was added to induce expression of c-fos and c-jun. Cells were extracted in guanidinium one hour later, and the c-fos and c-jun mRNA expression was determined by Northern blotting. Probes for human c-jun and c-fos were PCR products prepared using primers based on the published sequences thereof (respectively, Hattori et al., Proc. Natl. Acad. Sci. U.S.A., 1988, 85:9148, and Van Straaten et al., Proc. Natl. Acad. Sci. U.S.A., 1983, 80:3183).

A further data set has as its system c-fos mRNA. Kind of data set: c-fos mRNA expression in TPA-induced A549 cells, Northern blotting. It counts as cell-based, human. As to conditions: for c-fos mRNA % CONTROL: 400 nM oligonucleotide with LIPOFECTIN, control is TPA induction, at 1 hour, in A549 cells; for inhibition of c-fos mRNA expression: 400 nM oligonucleotide, TPA-induced A549 cells; for c-fos (expression, modified oligonucleotides): Table 10, TPA - no oligo = 100, basal = 3. Here is the method:
In order to evaluate the activity of potential c-fos and c-jun modulating oligonucleotides, A549 cells were grown in T-75 flasks until 80-90% confluent. (Cell line A549 is available from, inter alia, the American Type Culture Collection, Rockville, Md., as ATCC No. CCL-185.) At this time, the cells were washed twice with 10 mL of media (DMEM), followed by the addition of 5 mL of DMEM containing 20 μg/mL of LIPOFECTIN™ (i.e., DOTMA/DOPE (N-[1-(2,3-dioleyloxy)propyl]-N,N,N-[…] chloride/dioleoylphosphatidyl ethanolamine)). The oligonucleotides were added from a 10 μM stock solution to a final concentration of 400 nM, and the two solutions were mixed by swirling the flasks. After 4 hours at 37° C., the medium was replaced with DMEM containing 10% serum. At this point, 1 μM 12-O-tetradecanoylphorbol 13-acetate (TPA) was added to induce expression of c-fos and c-jun. Cells were extracted in guanidinium one hour later, and the c-fos and c-jun mRNA expression was determined by Northern blotting. Probes for human c-jun and c-fos were PCR products prepared using primers based on the published sequences thereof (respectively, Hattori et al., Proc. Natl. Acad. Sci. U.S.A., 1988, 85:9148, and Van Straaten et al., Proc. Natl. Acad. Sci. U.S.A., 1983, 80:3183).
Finally, it can also be seen from Table 5 that neither active oligonucleotide has any detectable effect on mRNA levels of the other active oligonucleotide's target.
Once oligonucleotides that modulate c-Fos or c-Jun are identified, derivative or modified oligonucleotides having the same sequence thereas are prepared. In order to evaluate the effect of chemical modifications to oligonucleotides to c-fos and c-jun, the modified oligonucleotides described in Tables 8 and 9 were prepared. The effect of the c-fos-targeted oligonucleotides on c-fos RNA levels were evaluated as described in Examples 2-3. […] Other modified oligonucleotides of the invention are evaluated in like fashion. In order to evaluate the effect of PNA antisense analogs, the PNA analogs of the invention are introduced into appropriate cell lines by microinjection according to the method of Hanvey et al. (Science, 1992, 258:1481). Intracellular delivery of PNA analogs is confirmed by the use of a fluorescently tagged PNA antisense analog conjugate such as, e.g., ISIS 14240.

Strand notation (5' to 3'): a small letter for the sugar, then the base; units joined by * are phosphorothioate-linked, units joined directly phosphodiester-linked; [ ] holds rarer units or linkages, { } end groups; capitals alone tell only the bases. d = 2'-deoxy (DNA)

As to “CCC-CCG-ACC-GTC-TCT-CTT-CA (dC*dC*dC*dC*dC*dG*dA*dC*dC*dG*dT*dC*dT*dC*dT*dC*dT*dT*dC*dA; antisense) [ISIS 10581]”, in the data set with c-jun mRNA, the “c-jun mRNA % CONTROL” value turned out to be 24 % CONTROL and the “inhibition of c-jun mRNA expression” value is 76%.

As for “TGC-CCC-TCA-GCC-CCC-GAC-GG (dT*dG*dC*dC*dC*dC*dT*dC*dA*dG*dC*dC*dC*dC*dC*dG*dA*dC*dG*dG; antisense) [ISIS 10583]”, in the data set with c-jun mRNA, the “c-jun mRNA % CONTROL” value is listed as 20 % CONTROL and the “inhibition of c-jun mRNA expression” value was 80%.

For “TTG-CAG-GCA-GGT-CGG-TGA-GC (TTGCAGGCAGGTCGGTGAGC; antisense; all phosphorothioate, sugars by position and methylation of C not given here) [ISIS 10634]”, in the data set on c-fos mRNA, the “c-fos mRNA % CONTROL” value amounted to 42 % CONTROL.

On to “GAG-AAC-ATC-ATC-GTG-GCG-GT (GAGAACATCATCGTGGCGGT; antisense; all phosphorothioate, sugars by position and methylation of C not given here) [ISIS 10631]”, for which the “c-fos mRNA % CONTROL” value in the data set with c-fos mRNA turned out to be 118 % CONTROL.

Turning to “TGC-TGC-TGC-CCT-TGC-GGT-GG (TGCTGCTGCCCTTGCGGTGG; antisense; all phosphorothioate, sugars by position and methylation of C not given here) [ISIS 10636]”, in the data set on c-fos mRNA, the “c-fos mRNA % CONTROL” value turned out to be 42 % CONTROL.

As to “CGC-ACC-TCC-ACT-CCC-GCC-TC (dC*dG*dC*dA*dC*dC*dT*dC*dC*dA*dC*dT*dC*dC*dC*dG*dC*dC*dT*dC; antisense) [ISIS 10571]”, the “c-jun mRNA % CONTROL” value with c-jun mRNA worked out at 100 % CONTROL.

As for “TGG-CAC-GGA-GCG-GGC-TGT-CT (TGGCACGGAGCGGGCTGTCT; antisense; all phosphorothioate, sugars by position and methylation of C not given here) [ISIS 10635]”, in the data set on c-fos mRNA, the “c-fos mRNA % CONTROL” value came out at 12 % CONTROL and the “inhibition of c-fos mRNA expression” value came out at 88%.

As to “CGG-TCA-CTG-CTC-GTT-CGC-TG (CGGTCACTGCTCGTTCGCTG; antisense; all phosphorothioate, sugars by position and methylation of C not given here) [ISIS 10629]”, the “c-fos mRNA % CONTROL” value with c-fos mRNA is on record as 72 % CONTROL.

Consider “TGG-TGC-CTG-CGT-GAT-ACT-CG (TGGTGCCTGCGTGATACTCG; antisense; DNA, all phosphorothioate, methylation of C not given here) [ISIS 10645]”, for which the “c-fos mRNA % CONTROL” value in the data set with c-fos mRNA was 56 % CONTROL.

On to “CGC-GCC-CGG-CCT-GAA-AAT-TT (CGCGCCCGGCCTGAAAATTT; antisense; DNA, all phosphorothioate, methylation of C not given here) [ISIS 10642]”, for which the “c-fos mRNA % CONTROL” value with c-fos mRNA is listed as 87 % CONTROL.

Take “A^SA^SG^ST^SC^SC^ST^ST^SG^SA^SG^SG^SC^SC^SChu SA^SC^SA^SG^SC (AAGTCCTTGAGGCCCACAGC; all phosphorothioate, sugars by position and methylation of C not given here; further chemistry not fully specified) [ISIS 11200]”: in the data set on c-fos mRNA (A549 cells), the “effect on c-fos mRNA levels during TPA induction (in words)” value is “some enhancement of c-fos modulation” and the “c-fos (expression, modified oligonucleotides)” value is 5.

Consider “TGC-TCG-CTG-CAC-ATG-CGG-TT (TGCTCGCTGCACATGCGGTT; antisense; all phosphorothioate, sugars by position and methylation of C not given here) [ISIS 10628]”, for which, in the data set on c-fos mRNA, the “c-fos mRNA % CONTROL” value turned out to be 79 % CONTROL.

In the case of “AGC-TCC-CTC-CTC-CGG-TTG-CG (AGCTCCCTCCTCCGGTTGCG; antisense; all phosphorothioate, sugars by position and methylation of C not given here) [ISIS 10633]”, in the data set on c-fos mRNA, the “c-fos mRNA % CONTROL” value is reported as 24 % CONTROL and the “inhibition of c-fos mRNA expression” value is recorded as 76%.

On to “ACC-AGC-CCG-GGA-GCC-ACA-GG (dA*dC*dC*dA*dG*dC*dC*dC*dG*dG*dG*dA*dG*dC*dC*dA*dC*dA*dG*dG; antisense) [ISIS 10572]”, for which the “c-jun mRNA % CONTROL” value in the data set with c-jun mRNA was 39 % CONTROL.

As to “TCC-CGT-CCC-CAG-AAG-CAG-TA (TCCCGTCCCCAGAAGCAGTA; antisense; DNA, all phosphorothioate, methylation of C not given here) [ISIS 10641]”, in the data set with c-fos mRNA, the “c-fos mRNA % CONTROL” value turned out to be 68 % CONTROL.

In the case of “GCC-ACA-CTC-AGT-GCA-ACT-CT (dG*dC*dC*dA*dC*dA*dC*dT*dC*dA*dG*dT*dG*dC*dA*dA*dC*dT*dC*dT; antisense) [ISIS 10570]”, in the data set on c-jun mRNA, the “c-jun mRNA % CONTROL” value was determined as 62 % CONTROL.

For “CCC-CTC-CAG-CAG-CTA-CCC-TT (CCCCTCCAGCAGCTACCCTT; antisense; all phosphorothioate, sugars by position and methylation of C not given here) [ISIS 10640]”, the “c-fos mRNA % CONTROL” value in the data set with c-fos mRNA is on record as 87 % CONTROL.

Regarding “CCT-CAC-AGG-GCC-AGC-AGC-GT (CCTCACAGGGCCAGCAGCGT; antisense; all phosphorothioate, sugars by position and methylation of C not given here) [ISIS 10637]”, the “c-fos mRNA % CONTROL” value in the data set with c-fos mRNA worked out at 35 % CONTROL.

Regarding “GCT-GCG-CCG-CCG-ACG-TGA-CG (dG*dC*dT*dG*dC*dG*dC*dC*dG*dC*dC*dG*dA*dC*dG*dT*dG*dA*dC*dG; antisense) [ISIS 10578]”, the “c-jun mRNA % CONTROL” value with c-jun mRNA worked out at 37 % CONTROL.

“CCT-GCC-TCG-GCC-TCC-CAA-AG (CCTGCCTCGGCCTCCCAAAG; antisense; DNA, all phosphorothioate, methylation of C not given here) [ISIS 10643]”: the “c-fos mRNA % CONTROL” value in the data set on c-fos mRNA came to 39 % CONTROL.

As for “GGT-GCC-GGC-TGC-CTC-CCC-TT (GGTGCCGGCTGCCTCCCCTT; antisense; all phosphorothioate, sugars by position and methylation of C not given here) [ISIS 10638]”, in the data set with c-fos mRNA, the “c-fos mRNA % CONTROL” value was 22 % CONTROL and the “inhibition of c-fos mRNA expression” value is given as 78%.

As for “GTG-TCT-CGC-CGG-GCA-TCT-CG (dG*dT*dG*dT*dC*dT*dC*dG*dC*dC*dG*dG*dG*dC*dA*dT*dC*dT*dC*dG; antisense) [ISIS 10580]”, in the data set with c-jun mRNA, the “c-jun mRNA % CONTROL” value is reported as 19 % CONTROL and the “inhibition of c-jun mRNA expression” value stood at 81%.

Regarding “A^SA^SG^ST^SC^SC^ST^ST^SG^SA^SG^SG^SC^SC^SC^SA^SC^SA^SG^SC (antisense AAGTCCTTGAGGCCCACAGC; all phosphorothioate, sugars by position and methylation of C not given here) [ISIS 11538]”, in the data set on c-fos mRNA (A549 cells), the “c-fos (expression, modified oligonucleotides)” value amounted to 15.

As to “CCC-CCA-CTT-CCG-CCC-ACT-AT (CCCCCACTTCCGCCCACTAT; antisense; DNA, all phosphorothioate, methylation of C not given here) [ISIS 10644]”, the “c-fos mRNA % CONTROL” value in the data set with c-fos mRNA is 104 % CONTROL.

As to “CCC-TCC-CAG-GCT-CAA-GTC-AT (CCCTCCCAGGCTCAAGTCAT; antisense; DNA, all phosphorothioate, methylation of C not given here) [ISIS 10646]”, the “c-fos mRNA % CONTROL” value in the data set with c-fos mRNA is 100 % CONTROL.

As for “ACC-GTG-GGA-ATG-AAG-TTG-GC (ACCGTGGGAATGAAGTTGGC; antisense; all phosphorothioate, sugars by position and methylation of C not given here) [ISIS 10632]”, in the data set with c-fos mRNA, the “c-fos mRNA % CONTROL” value turned out to be 63 % CONTROL.

Turning to “CAT-CGT-GGC-GGT-TAG-GCA-AA (CATCGTGGCGGTTAGGCAAA; antisense; all phosphorothioate, sugars by position and methylation of C not given here) [ISIS 10630]”, in the data set on c-fos mRNA, the “c-fos mRNA % CONTROL” value worked out at 91 % CONTROL.
